The record followed here is patent US11161818B2, “Quinolone derivatives, preparation methods and application thereof” (Hangzhou Normal University, priority 2019, dated 2021).

pIC50: −log10 of the molar value. Structures can show the parent of a compound that is named as a salt. Bounds are passed on as bounds.

One experiment deals with S. aureus. Briefly: Bactericidal activity test, filter paper inhibition zone. In kind it is cell-based, Staphylococcus aureus. To be noted: filter paper diameter 6 mm, 37° C., 24 hours; for S. aureus inhibition zone: sample concentration 10 mg/mL. The protocol:
(§1) In order to determine the practicability of the compounds synthesized in this patent, some of the compounds are selected as representatives, and the bactericidal activity is determined by conventional methods. The specific operation procedures are as follows:
(§2) In a super clean bench, the preserved strains are transferred to a slant tube, cultured in an incubator at 37° C. for 24 hours, and then taken out and preserved at low temperature for antibacterial experiments. The well-grown colonies are scraped and transferred into a liquid medium with the inoculation ring, shaken to give a uniform mixture, and cultured in the incubator at 37° C. for 24 hours. The culture medium is poured into plates, about 15 ml for each plate, which are placed horizontally, and after solidification, placed upside down into the incubator at 37° C.; after two days, it is observed whether there is colony growth. If not, it can be used for the next experiment, otherwise, the plate needs to be poured again. 0.5 ml of bacterial suspension is pipetted into the plate, which is left to stand still for about 5 minutes, and then spread evenly with a coating rod; two duplicate plates are set for each kind of bacteria. In the super clean bench, the plates are divided equally and parallel groups are set. Each piece of filter paper (6 mm in diameter) is a paste. The filter paper is picked up with tweezers, dipped into a sample, taken out, placed at a given position of the plate, and gently pressed to make the filter paper firmly adhered thereto. The plate is placed (upside down) in the incubator for culture; the temperature is set at 37° C.; and after 24 hours culture, the plate is observed and the results are recorded.

The next experiment deals with lung cancer cells (A549). Briefly: Anti-tumor activity test, MTT method. It is filed as cell-based. The note with it: concentration 0.5 mg/ml (DMSO as solvent), 44 + 4 hours culture. The method, then:
(§3) For the anti-tumor activity test of these compounds, three kinds of common tumor cells are taken as research subjects: non-small cell lung cancer cells (HCC827), lung cancer cells (A549) and liver cancer cells (HepG2). Under the action of the new quinolone derivatives, the growth of the cells is observed, and the proliferation of tumor cells is measured by MTT method. The specific operation is as follows: the tumor cells are inoculated into 96-well culture plate in a particular amount of cells, with a cell density of 2×10^4 cells/ml; after overnight in the incubator with a concentration of 5% CO2 at 37° C., the screened samples are added (reference can be made to Table 1 for sample concentration; 10 μL/well of corresponding concentration of drugs are added to the dosing group, while 10 μL/well of PBS are added to the control group). After 44 hours of culture, 10 μL/well of MTT are added to continue the culture for 4 hours, which is dissolved with DMSO, shaken, and detected with a 570 nm enzyme-labeled instrument.

Experiment [1] concerns non-small cell lung cancer cells (HCC827). Briefly: Anti-tumor activity test, MTT method. It is filed as cell-based. The note with it: concentration 0.5 mg/ml (DMSO as solvent), 44 + 4 hours culture. The method, then: as §3
For orientation: Tetrazolium dyes change colour on reduction, which living cells bring about.

In another experiment the test system is E. coli. The experiment in a line: Bactericidal activity test, filter paper inhibition zone. It is filed as cell-based. To be noted: filter paper diameter 6 mm, 37° C., 24 hours; for E. coli activity inhibition zone: sample concentration 10 mg/mL. The method, then:
as §1, §2

In experiment [2] the test system is MRSA (methicillin-resistant Staphylococcus aureus). The description is as above. The note with it: filter paper diameter 6 mm, 37° C., 24 hours; for MRSA inhibition zone: sample concentration 10 mg/mL. It is filed as cell-based. The method, then: as §1, §2
For the next experiment, the system named is B. subtilis. The experiment is described as above. In kind it is cell-based, Bacillus subtilis. To be noted: filter paper diameter 6 mm, 37° C., 24 hours; for B. subtilis inhibition zone: sample concentration 10 mg/mL. The protocol:
as §1, §2

In experiment [3] the test system is liver cancer cells (HepG2). Briefly: Anti-tumor activity test, MTT method. In kind it is cell-based, human. To be noted: concentration 0.5 mg/ml (DMSO as solvent), 44 + 4 hours culture. The method, then: as §3

By pIC50 is commonly meant −log10 of the IC50, conventionally taken in molar units. On to `CCOC(=O)c1cn(-c2ccc(Oc3ccc(Cl)cc3)cc2)c2cc(Cl)c(F)cc2c1=O` [Compound I-3, ethyl 7-chloro-1-(4-(4-chlorophenoxy)phenyl)-6-fluoro-4-oxy-1,4-dihydroquinoline-3-carboxylate], for which the “S. aureus inhibition zone” value with S. aureus is 20 mm. Besides, the negative-log IC50 (pIC50) with lung cancer cells (A549) is under 5.00; in experiment [1], 5.35; in experiment [3] it was 5.12. Also, the “E. coli activity inhibition zone” value in the experiment on E. coli stood at 24 mm. The compound further had an MRSA inhibition zone in experiment [2] of 8 mm. Besides, in the experiment on B. subtilis, the “B. subtilis inhibition zone” value was found to be 18 mm.

`CCOC(=O)c1cn(-c2ccc(Oc3ccccc3)cc2)c2cc(Cl)c(F)cc2c1=O` [Compound I-4, ethyl 7-chloro-6-fluoro-4-oxy-1-(4-phenoxyphenyl)-1,4-dihydroquinoline-3-carboxylate]: the “S. aureus inhibition zone” value with S. aureus was 19 mm. For the same compound, the “E. coli activity inhibition zone” value in the experiment on E. coli is listed as 27 mm. The MRSA inhibition zone in experiment [2] was determined as 9 mm. For the same compound, the “B. subtilis inhibition zone” value with B. subtilis is listed as 23 mm.

Turning to `CCOC(=O)c1cn(-c2ccc(Oc3ccc(F)cc3)cc2)c2cc(Cl)c(F)cc2c1=O` [Compound I-7, ethyl 7-chloro-6-fluoro-1-(4-(4-fluorophenoxy)phenyl)-4-oxy-1,4-dihydroquinoline-3-carboxylate], the “S. aureus inhibition zone” value in the experiment on S. aureus is recorded as 15 mm. In the experiment with E. coli, the “E. coli activity inhibition zone” value came to 17 mm. For the same compound, in experiment [2], the MRSA inhibition zone is given as 7 mm. Also, the “B. subtilis inhibition zone” value in the experiment with B. subtilis was found to be 13 mm.

For `CCOC(=O)c1cn(-c2ccc(Oc3ccc(C)cc3)cc2)c2cc(Cl)c(F)cc2c1=O` [Compound I-8, ethyl 7-chloro-6-fluoro-1-(4-(4-toluoxy)phenyl)-4-oxy-1,4-dihydroquinoline-3-carboxylate], the “S. aureus inhibition zone” value in the experiment on S. aureus was found to be 13 mm. Moreover, the “E. coli activity inhibition zone” value with E. coli came to 12 mm. In addition, the MRSA inhibition zone in experiment [2] was found to be 10 mm. In addition, in the experiment with B. subtilis, the “B. subtilis inhibition zone” value turned out to be 12 mm.

For `CCOC(=O)c1cn(-c2ccc(Oc3ccc(C(C)(C)C)cc3)cc2)c2cc(Cl)c(F)cc2c1=O` [Compound I-10, ethyl 7-chloro-6-fluoro-1-(4-(4-tert-butylphenoxy)phenyl)-4-oxy-1,4-dihydroquinoline-3-carboxylate], the “S. aureus inhibition zone” value with S. aureus was 20 mm. Also, in the experiment on E. coli, the “E. coli activity inhibition zone” value was 24 mm. Moreover, the MRSA inhibition zone in experiment [2] came to 14 mm. Also, in the experiment with B. subtilis, the “B. subtilis inhibition zone” value was determined as 20 mm.

Consider `CCOC(=O)c1cn(-c2ccc(Oc3ccc(OC)cc3)cc2)c2cc(Cl)c(F)cc2c1=O` [Compound I-11, ethyl 7-chloro-6-fluoro-1-(4-(4-methoxyphenoxy)phenyl)-4-oxy-1,4-dihydroquinoline-3-carboxylate], for which the “S. aureus inhibition zone” value with S. aureus came out at 11 mm. For the same compound, the “E. coli activity inhibition zone” value in the experiment on E. coli was found to be 22 mm. For the same compound, the MRSA inhibition zone in experiment [2] is on record as 7 mm. In addition, in the experiment on B. subtilis, the “B. subtilis inhibition zone” value was 13 mm.

Consider `CCOC(=O)c1cn(-c2ccc(Oc3ccc(OC(F)(F)F)cc3)cc2)c2cc(Cl)c(F)cc2c1=O` [Compound I-12, ethyl 7-chloro-6-fluoro-1-(4-(4-trifluoromethoxyphenoxy)phenyl)-4-oxy-1,4-dihydroquinoline-3-carboxylate], for which the “S. aureus inhibition zone” value in the experiment on S. aureus stood at 24 mm. The pIC50 with lung cancer cells (A549) is under 5.00; in experiment [1], under 5.00; in experiment [3] it was 5.07. Besides, the “E. coli activity inhibition zone” value in the experiment with E. coli was 28 mm. This compound came in with an MRSA inhibition zone in experiment [2] of 8 mm. The “B. subtilis inhibition zone” value in the experiment with B. subtilis amounted to 8 mm.

Regarding `CCOC(=O)c1cn(-c2ccc(Oc3ccc(C(F)(F)F)cc3)cc2)c2cc(Cl)c(F)cc2c1=O` [Compound I-14, ethyl 7-chloro-6-fluoro-1-(4-(4-trifluoromethylphenoxy)phenyl)-4-oxy-1,4-dihydroquinoline-3-carboxylate], the “S. aureus inhibition zone” value in the experiment with S. aureus was 20 mm. Moreover, the “E. coli activity inhibition zone” value in the experiment with E. coli is recorded as 27 mm. Besides, the MRSA inhibition zone in experiment [2] turned out to be 12 mm. In addition, the “B. subtilis inhibition zone” value in the experiment with B. subtilis was 15 mm.

Consider `CCOC(=O)c1cn(-c2ccc(Oc3ccc(Cl)c(Cl)c3)cc2)c2cc(Cl)c(F)cc2c1=O` [Compound I-15, ethyl 7-chloro-1-(4-(3,4-dichlorophenoxy)phenyl)-6-fluoro-4-oxy-1,4-dihydroquinoline-3-carboxylate], for which, in the experiment on S. aureus, the “S. aureus inhibition zone” value is given as 20 mm. Moreover, the “E. coli activity inhibition zone” value in the experiment on E. coli turned out to be 21 mm. Moreover, the MRSA inhibition zone in experiment [2] was found to be 9 mm. Moreover, the “B. subtilis inhibition zone” value with B. subtilis is on record as 18 mm.

For the compound `CCOC(=O)c1cn(-c2ccc(Oc3ccc(C)c(C)c3)cc2)c2cc(Cl)c(F)cc2c1=O` [Compound I-17, ethyl 7-chloro-1-(4-(3,4-dimethylphenoxyl)phenyl)-6-fluoro-4-oxy-1,4-dihydroquinoline-3-carboxylate], in the experiment on S. aureus, the “S. aureus inhibition zone” value stood at 20 mm. Further, the “E. coli activity inhibition zone” value in the experiment with E. coli is listed as 29 mm. Besides, in experiment [2], the MRSA inhibition zone is on record as 7 mm. Further, the “B. subtilis inhibition zone” value in the experiment on B. subtilis was determined as 11 mm.

Regarding `CCOC(=O)c1cn(Cc2ccc(Oc3ccc(Cl)cc3)cc2)c2cc(Cl)c(F)cc2c1=O` [Compound I-20, ethyl 7-chloro-1-(4-(4-chlorophenoxy)benzyl)-6-fluoro-4-oxy-1,4-dihydroquinoline-3-carboxylate], the “S. aureus inhibition zone” value with S. aureus came to 21 mm. In addition, the “E. coli activity inhibition zone” value in the experiment on E. coli was found to be 24 mm. This compound came in with an MRSA inhibition zone in experiment [2] of 10 mm. Also, in the experiment on B. subtilis, the “B. subtilis inhibition zone” value is on record as 12 mm.

For the compound `CCOC(=O)c1cn(Cc2ccc(Oc3ccccc3C)cc2)c2cc(Cl)c(F)cc2c1=O` [Compound I-22, ethyl 7-chloro-1-(4-(2-methylphenoxy)benzyl)-6-fluoro-4-oxy-1,4-dihydroquinoline-3-carboxylate], in the experiment on S. aureus, the “S. aureus inhibition zone” value is listed as 23 mm. Further, the “E. coli activity inhibition zone” value in the experiment with E. coli turned out to be 30 mm. For the same compound, in experiment [2], the MRSA inhibition zone is 14 mm. For the same compound, in the experiment with B. subtilis, the “B. subtilis inhibition zone” value is recorded as 18 mm.

In the case of `O=C(O)c1cn(-c2ccc(Oc3ccc(Cl)cc3)cc2)c2cc(Cl)c(F)cc2c1=O` [Compound I-26, 7-chloro-1-(4-(4-chlorophenoxy)phenyl)-6-fluoro-4-oxy-1,4-dihydroquinoline-3-carboxylic acid], the “S. aureus inhibition zone” value with S. aureus stood at 29 mm. In addition, the results for the pIC50 (in the experiment on lung cancer cells (A549); in experiment [1]; in experiment [3]) were under 5.00, 5.30 and 5.30, respectively. The “E. coli activity inhibition zone” value in the experiment on E. coli was found to be 29 mm. In experiment [2], this compound returned an MRSA inhibition zone of 15 mm. In addition, in the experiment with B. subtilis, the “B. subtilis inhibition zone” value amounted to 24 mm.

In the case of `COc1ccc(Oc2ccc(-n3cc(C(=O)O)c(=O)c4cc(F)c(Cl)cc43)cc2)cc1` [Compound I-28, 7-chloro-1-(4-(4-methoxyphenoxy)phenyl)-6-fluoro-4-oxy-1,4-dihydroquinoline-3-carboxylic acid], the “S. aureus inhibition zone” value with S. aureus was found to be 29 mm. The “E. coli activity inhibition zone” value with E. coli came to 25 mm. The same compound returned an MRSA inhibition zone in experiment [2] of 11 mm. Further, the “B. subtilis inhibition zone” value in the experiment with B. subtilis is given as 28 mm.

For orientation: zone of inhibition means the size of the clear area around the sample on an inoculated plate. A high value points to a stronger effect on the plate. As to `C[C@H]1COc2c(N3CCN(C)CC3)c(F)cc3c(=O)c(C(=O)O)cn1c23` [Control group, levofloxacin hydrochloride, reference compound], the zone of inhibition at 5000 µg/mL with S. aureus (Staphylococcus aureus, control concentration 5 mg/mL) was determined as 26 mm; in the experiment on E. coli (Escherichia coli, control concentration 5 mg/mL) it was 25 mm; in experiment [2] (Staphylococcus aureus, MRSA, control concentration 5 mg/mL), 12 mm; in the experiment on B. subtilis (Bacillus subtilis, control concentration 5 mg/mL), 22 mm.

As to `CC(=O)O[C@H]1C(=O)[C@@]2(C)[C@H]([C@H](OC(=O)c3ccccc3)[C@]3(O)C[C@H](OC(=O)[C@H](O)[C@@H](NC(=O)c4ccccc4)c4ccccc4)C(C)=C1C3(C)C)[C@]1(OC(C)=O)CO[C@@H]1C[C@@H]2O` [Paclitaxel, reference compound], the negative logarithm of the IC50 (pIC50) was 5.46 in the experiment with lung cancer cells (A549) (Homo sapiens), 5.60 in experiment [1] (Homo sapiens) and 5.82 in experiment [3] (Homo sapiens).
